Source: patent publication US20180111991A1, “MODULATORS OF ACTIVIN AND METHODS FOR MODULATING IMMUNE RESPONSES AND T FOLLICULAR HELPER CELLS” (LA JOLLA INSTITUTE FOR ALLERGY AND IMMUNOLOGY, priority 2014, published 2018)
Entries after “also recorded” stand apart in the source; their conditions may differ.

Assays:
[1] = test system: mouse naïve CD4 T cells; experiment: Mouse CD4 T cell differentiation; type: cell-based, mouse (BALB/c, C57BL/6)
Description: Naïve CD4^+ T cells were isolated from spleen using the Naïve CD4^+ T cell isolation kit (Stem Cell). Purity was 92% or higher. Naïve CD4^+ T cells (2×10^5 cells/well) were cultured for 3 days with recombinant human/mouse/rat activin A (50 ng/ml, R&D Systems), recombinant mouse IL-12 (10 ng/ml, Peprotech), and/or recombinant mouse IL-6 (20 ng/ml, Peprotech) in the presence of plate-bound anti-mouse-CD3 mAb (8 μg/ml, clone 145-2C11, BioXcell) and anti-mouse-CD28 (8 μg/ml, clone 37.51, BioXcell), in RPMI medium, supplemented with 10% fetal bovine serum, GlutaMAX, penicillin/streptomycin, and 2.5 μM β-mercaptoethanol. After 3 days, cells were removed from stimuli and further cultured for 2 additional days in IL-2 (50 U/mL,) and the same cytokine combination used at day 0. Phenotype was quantified by FACS at day 5 of the in vitro culture.

[2] = test system: SMAD2/3; experiment: Analysis of phosphorylated SMAD2/3 in blood naïve CD4 T cells; type: cell-based, human
Description: Fresh PBMCs and tonsil mononuclear cells were serum-starved over night in AIM-V medium. […] Following stimulation, the cells were fixed in BD Phosflow™ Fix Buffer I (BD Biosciences), then permeabilized using BD Phosflow™ Perm Buffer III (BD Biosciences) following manufacture's instruction.

[3] = test system: human naïve CD4 T cells; experiment: Intracellular cytokine staining after PMA/Ionomycin restimulation; type: cell-based
Description: For surface staining, primary-staining panels used for phenotypic analysis or for cell sorting known in the art were used. For the intranuclear staining: cells were treated with the FoxP3 Fixation/Permeabilization kit (eBioscience) and stained in Permeabilization buffer (eBioscience). For cytokine staining: day 3 or day 5 in vitro differentiated cells (specified in the main text or in figure legends) cells were stimulated for 5 hours at 37° C. with Phorbol 12-myristate 13-acetate (PMA, 25 ng/ml) and Ionomycin (1 μg/ml) in the presence of Brefeldin A (5 μg/ml). Cells were fixed with PBS 2% FBS, 1% PFA and permeabilized with PBS 2% FBS, 0.5% Saponin (from quillaja bark, Sigma-Aldrich). Samples were analyzed on a LSR Fortessa Cell Analyzer (BD, Bioscience). Flow cytometry data were analyzed with FlowJo (Tree Star). For cell sorting, cells were sorted using sorted using a FACS Aria (BD, Bioscience).

[4] = test system: human naïve CD4 T cells; experiment: CXCL13 ELISA on supernatants of differentiated CD4 T cells; type: cell-based; conditions: plate bound anti-CD3 and ICOS-L, 5 days
Description: Unless differently specified, naïve CD4^+ T cells were enriched from PBMCs by magnetic bead negative selection with the Naïve CD4^+ T Cell Isolation Kit (Stem Cell Technologies). Purity (CD4^+CD45RA^+) was 90% or higher. Cells (7.5×10^4 cells/well) were activated by Dynabeads Human T-Activator CD3/CD28 (2 μl/well, Life Technologies) and cultured with recombinant human/mouse/rat activin A (50 ng/ml or 100 ng/ml), recombinant human IL-12 (5 ng/ml), recombinant human TGFβ (1 ng/ml), recombinant human IL-23 (10 ng/ml) or recombinant human IL-35 (10 ng/ml) in the presence of and recombinant human IL-7 (4 ng/ml) in AIM-V medium (Life Technologies). All cytokines were from R&D System and Peprotech. The 14 kDa mature human beta A chain of human activin A shares 100% amino acid sequence identity with bovine, feline, mouse, porcine, and rat beta A. Phenotype was quantified after 3 or 5 days, as specified in the main text of Figure legends. […] For experiments quantifying supernatant CXCL13 concentration, cells were activated by plate-bound anti-human CD3 (5 μg/ml, BD) and ICOS-L (5 μg/ml, recombinant human B7-H2, R&D). CXCL13 concentrations were determined via human CXCL13 DuoSet ELISA (R&D) on supernatants harvested after 5 days of in vitro culture. […]

[5] = test system: autologous memory B cells; experiment: T-B co-culture, B cell help; type: cell-based, human; conditions: CD4 T cells differentiated with activin A+IL-12, 7 days with SEB

Question: How did the “in vitro mouse Tfh differentiation” value ([1]; activin A in the presence of IL-6) turn out when “activin A: commercial recombinant cytokine, homodimer of the INHBA gene product (inhibin beta A)” was run?
Answer: did not result in activin A mediated promotion of in vitro mouse Tfh differentiation

Question: What about the “PD-1 and CXCR5 expression” value ([1]; mouse CD4 T cells, activin A alone or with IL-12, C57BL/6 and BALB/c) of the same substance?
Answer: did not have any relevant effect on PD-1 and CXCR5 expression by mouse CD4 T cells; also recorded: No relevant CXCR5 and PD-1 induction

Question: What about the “phosphorylation of SMAD2/3” value ([2]; blood naïve CD4 T cells, activin A 400 ng/ml) of the same substance?
Answer: Phosphorylation of SMAD2/3 in naïve human CD4 T cells in response to activin A was observed

Question: What about the “induction of SMAD-independent pathways” value ([2]; downstream of activin A, time points analyzed) of the same substance?
Answer: No relevant induction of SMAD-independent pathways

Question: What about the IL-21 production ([3]; cells cultured with activin A+IL-12, PMA/Ionomycin re-stimulation) of the same substance?
Answer: retained full IL-21 production potential

Question: And the “TNFα and LTα protein expression” value ([3]; day 3 cells, PMA/Ionomycin restimulation)?
Answer: superior ability of CD4 T cells cultured with activin A to express TNFα and LTα proteins

Question: And the “CXCL13 expression / secretion” value [4]?
Answer: selectively induces CXCL13 expression

Question: And the “B cell help (B cell proliferation and survival, plasmablast differentiation, IgG production)” value [5]?
Answer: functionally competent B cell helpers
